The target of one experiment is T1, Menin/MLL (Homo sapiens, UniProt O00255, T541A).
T1 construct: Menin (a.a 1-610-6xhis tag)
T1 sequence (O00255 with tags, fused parts or gaps T541A): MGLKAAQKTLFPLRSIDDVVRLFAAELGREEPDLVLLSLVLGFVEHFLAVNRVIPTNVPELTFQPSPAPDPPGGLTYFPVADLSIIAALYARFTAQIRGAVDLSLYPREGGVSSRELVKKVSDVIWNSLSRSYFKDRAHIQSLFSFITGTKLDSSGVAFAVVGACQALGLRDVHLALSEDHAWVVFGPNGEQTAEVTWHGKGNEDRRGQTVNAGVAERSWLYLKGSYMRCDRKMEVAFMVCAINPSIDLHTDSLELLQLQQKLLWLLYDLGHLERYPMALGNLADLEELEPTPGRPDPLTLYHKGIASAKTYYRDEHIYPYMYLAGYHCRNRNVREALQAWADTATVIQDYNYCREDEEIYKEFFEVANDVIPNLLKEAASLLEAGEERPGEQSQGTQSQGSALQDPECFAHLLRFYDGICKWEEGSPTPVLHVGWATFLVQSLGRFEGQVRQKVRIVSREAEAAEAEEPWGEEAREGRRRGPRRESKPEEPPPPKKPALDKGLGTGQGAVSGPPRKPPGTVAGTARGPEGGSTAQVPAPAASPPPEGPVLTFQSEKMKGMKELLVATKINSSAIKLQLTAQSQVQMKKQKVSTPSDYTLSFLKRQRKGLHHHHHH
The experiment is described as follows: Menin/MLL homogenous time-resolved fluorescence (HTRF) assay. The experiment is classed as binding. The following applies: 30 min incubation of test compound with terbium chelate-labeled menin; FITC-MBM1 peptide. Here is the method:
1) Menin/MLL homogenous time-resolved fluorescence (HTRF) assay
To an untreated, white 384-well microtiter plate was added 40 nL 200X test compound in DMSO and 4 μL 2X terbium chelate-labeled menin (vide infra for preparation) in assay buffer (40 mM Tris-HCl, pH 7.5, 50 mM NaCl, 1 mM DTT (dithiothreitol) and 0.05% Pluronic F-127). After incubation of test compound and terbium chelate-labeled menin for 30 min at ambient temperature, 4 μL 2X FITC-MBM1 peptide (FITC-β-alanine-SARWRFPARPGT-NH2 (SEQ ID NO: 2)) (“FITC” means fluorescein isothiocyanate) in assay buffer was added, the microtiter plate centrifuged at 1000 rpm for 1 min and the assay mixtures incubated for 15 min at ambient temperature. The relative amount of menin FITC--MBM1 complex present in an assay mixture is determined by measuring the homogenous time-resolved fluorescence (HTRF) of the terbium/FITC donor/acceptor fluorphore pair using an EnVision microplate reader (ex. 337 nm/terbium em. 490 nm/FITC em. 520 nm) at ambient temperature. The degree of fluorescence resonance energy transfer (the HTRF value) is expressed as the ratio of the fluorescence emission intensities of the FITC and terbium fluorophores (F^em 520 nm/F^em 490 nm). The final concentrations of reagents in the binding assay are 200 pM terbium chelate-labeled menin, 75 nM FITC-MBM1 peptide and 0.5% DMSO in assay buffer. Dose-response titrations of test compounds are conducted using an 11 point, four-fold serial dilution scheme, starting typically at 10 μM.
Compound potencies were determined by first calculating % inhibition at each compound concentration according to equation 1: […]
Where LC and HC are the HTRF values of the assay in the presence or absence of a saturating concentration of a compound that competes with FITC-MBM1 for binding to menin, and HTRF^compound is the measured HTRF value in the presence of the test compound. HC and LC HTRF values represent an average of at least 10 replicates per plate.
Where Bottom and Top are the lower and upper asymptotes of the dose-response curve, respectively, IC50 is the concentration of compound that yields 50% inhibition of signal and h is the Hill coefficient. IC50 values below 0.1 nM in the HTRF assay were reported as 0.1 nM in the Table below (detection limit).
Preparation of Terbium cryptate labeling of Menin: Menin (a.a 1-610-6xhis tag, 2.3 mg/mL in 20 mM Hepes (2-[4-(2-Hydroxyethyl)-1-piperazinyl]ethane sulfonic acid), 80 mM NaCl, 5 mM DTT (Dithiothreitol), pH 7.5) was labeled with terbium cryptate as follows. 200 μg of Menin was buffer exchanged into lx Hepes buffer. 6.67 μM Menin was incubated with 8-fold molar excess NHS (N-hydroxysuccinimide)-terbium cryptate for 40 minutes at room temperature. Half of the labeled protein was purified away from free label by running the reaction over a NAP5 column with elution buffer (0.1M Hepes, pH 7+0.1% BSA (bovine serum albumin)). The other half was eluted with 0.1 M phosphate buffered saline (PBS), pH7. 400 μl of eluent was collected for each, aliquoted and frozen at −80° C. The final concentration of terbium-labeled Menin protein was 115 μg/mL in Hepes buffer and 85 μg/mL in PBS buffer, respectively.
Background: TR-FRET usually uses a lanthanide donor and a delayed reading to cut background.

The test system of the next experiment is MOLM14 cells. Kind of experiment: Proliferation assay (spheroid assay) in MOLM14. The experiment is classed as cell-based. The following applies: Homo sapiens, MOLM-14, 192 h; MOLM14 (MLL-AF9), 8 days, confluence as measure of spheroid size; read-out: spheroid assay_OneTime MOLM14 IC50. Here is the method: The anti-proliferative effect of menin/MLL protein/protein interaction inhibitor test compounds was assessed in human leukemia cell lines. The cell line MOLM14 harbors a MLL translocation and expresses the MLL fusion proteins MLL-AF9, respectively, as well as the wildtype protein from the second allele. […] KO-52 was used as a control cell line containing two MLL (KMT2A) wildtype alleles in order to exclude compounds that display general cytotoxic effects.
MOLM14 cells were cultured in RPMI-1640 (Sigma Aldrich) supplemented with 10% heat-inactivated fetal bovine serum (HyClone), 2 mM L-glutamine (Sigma Aldrich) and 50 µg/ml gentamycin (Gibco). KO-52 cell lines were propagated in alpha-MEM (Sigma Aldrich) supplemented with 20% heat-inactivated fetal bovine serum (HyClone), 2 mM L-glutamine (Sigma Aldrich) and 50 µg/ml gentamycin (Gibco).
In order to assess the anti-proliferative effects, 200 MOLM14 cells, or 300 KO-52 cells were seeded in 200 μl media per well in 96-well round bottom, ultra-low attachment plates (Costar, catalogue number 7007). Cell seeding numbers were chosen based on growth curves to ensure linear growth throughout the experiment. Test compounds were added at different concentrations and the DMSO content was normalized to 0.3%. Cells were incubated for 8 days at 37° C. and 5% CO2. Spheroid like growth was measured in real-time by live-cell imaging (IncuCyteZOOM, Essenbio, 4× objective) acquiring images at day 8. Confluence (%) as a measure of spheroid size was determined using an integrated analysis tool.
In order to determine the effect of the test compounds over time, the confluence in each well as a measure of spheroid size, was calculated. Confluence of the highest dose of a reference compound was used as baseline for the LC (Low control) and the confluence of DMSO treated cells was used as 0% cytotoxicity (High Control, HC).
Absolute IC50 values were calculated as percent change in confluence as follows:
LC=Low Control: cells treated with e.g. 1 μM of the cytotoxic agent staurosporin, or e.g. cells treated with a high concentration of an alternative reference compound
GraphPad Prism (version 7.00) was used to calculate the IC50. Dose-response equation was used for the plot of % Effect vs Log10 compound concentration with a variable slope and fixing the maximum to 100% and the minimum to 0%.

By IC50 is commonly meant the concentration that inhibits the measured activity by half. As to `CCN(CC(C)O)C(=O)c1cc(F)ccc1Oc1nncnc1N1CCC2(C1)CN(C(CCCN(C)CCOC)C(C)C)C2` (single isomer, unassigned) [Compound 17], the IC50 at Menin/MLL turned out to be 79.3 nM.

As to `CCN(C)C[C@H](O)C[C@@H](N1CC2(CCN(c3ncnnc3Oc3ccc(F)cc3C(=O)N(CC)C(C)C)C2)C1)C(C)(C)C` (single isomer, unassigned) [Compound 24], 35.5 nM corresponded to half-maximal inhibition at Menin/MLL (IC50).

In the case of `CCN(C(=O)c1cc(F)ccc1Oc1nncnc1N1CCC2(C1)CN(C(CCCNCCSC)C(C)C)C2)C(C)C` (single isomer, unassigned) [Compound 3], the IC50 in the experiment on MOLM14 cells was determined as 5 nM.

As to `CC(C)N(C(=O)c1cc(F)ccc1Oc1nncnc1N1CCC2(C1)CN(C(CC(O)CN(C)C)C(C)(C)C)C2)C(C)C` (single isomer, unassigned) [Compound 22], on Menin/MLL, the half-maximal inhibitory concentration (IC50) was 18.2 nM.

On to `C=CCN(C)CCCC(C(C)C)N1CC2(CCN(c3ncnnc3Oc3ccc(F)cc3C(=O)N(CC)C(C)C)C2)C1` (single isomer, unassigned) [Compound 12], for which the IC50 in the experiment on MOLM14 cells is 29 nM.

On to `CCN(C(=O)c1cc(F)ccc1Oc1nncnc1N1CCC2(C1)CN(C(CCCN(C)CCOCCN)C(C)C)C2)C(C)C` (single isomer, unassigned) [Compound 5], for which the half-maximal inhibitory concentration (IC50) turned out to be 0.11 nM on Menin/MLL and 220 nM in the experiment with MOLM14 cells.

`CCN(C(=O)c1cc(F)ccc1Oc1nncnc1N1CCC2(C1)CN(C(CCCN(C)CCOCCCCN)C(C)C)C2)C(C)C` (single isomer, unassigned) [Compound 6]: in the experiment with MOLM14 cells, the IC50 amounted to 100 nM.

On to `COCCN(C)CCC[C@H](C(C)C)N1CC2(CCN(c3ncnnc3Oc3ccc(F)cc3C(=O)N(CCNC(C)=O)C(C)C)C2)C1` [Compound 15], for which the IC50 against Menin/MLL is 0.331 nM; in the experiment with MOLM14 cells, 470 nM.

Consider `CCN(C(=O)c1cc(F)ccc1Oc1nncnc1N1CCC2(C1)CN(C(CCCN(C)CCOC)C(C)(C)C)C2)C(C)C` (single isomer, unassigned) [Compound 13a], for which the half-inhibitory concentration (IC50) against Menin/MLL worked out at 1.97 nM.

On to `CCN(C(=O)c1cc(F)ccc1Oc1nncnc1N1CCC2(C1)CN(C(CCCNCCOC(F)(F)F)C(C)C)C2)C(C)C` (single isomer, unassigned) [Compound 4], for which the IC50 was 0.208 nM on Menin/MLL and 21 nM with MOLM14 cells.

In the case of `CCN(CC(C)O)C(=O)c1cc(F)ccc1Oc1nncnc1N1CCC2(C1)CN(C(CCCN(C)CCOC)C(C)C)C2` (stereo not shown) [Compound 14], the IC50 is 6.66 nM against Menin/MLL and more than 940 nM in the experiment on MOLM14 cells.

Take `CCN(CC(C)O)C(=O)c1cc(F)ccc1Oc1nncnc1N1CCC2(C1)CN(C(CCCN(C)CCOC)C(C)C)C2` (single isomer, unassigned) [Compound 16]: on Menin/MLL, the IC50 is 2.97 nM.

For the compound `COCCN(C)CCC[C@H](C(C)C)N1CC2(CCN(c3ncnnc3Oc3ccc(F)cc3C(=O)N(CCO)C(C)C)C2)C1` [Compound 19], the IC50 in the experiment on MOLM14 cells was determined as 32 nM.

Take `CCN(C(=O)c1cc(F)ccc1Oc1nncnc1N1CCC2(C1)CN([C@H](CCN(C)CCS(N)(=O)=O)C(C)C)C2)C(C)C` (single isomer, unassigned) [Compound 20]: the IC50 at Menin/MLL came out at 0.29 nM; in the experiment on MOLM14 cells it was 430 nM.

As for `CCN(C(=O)c1cc(F)ccc1Oc1nncnc1N1CCC2(C1)CN(C(CCCN(C)CCOC(F)F)C(C)C)C2)C(C)C` (single isomer, unassigned) [Compound 8], the half-inhibitory concentration (IC50) against Menin/MLL is 0.182 nM; in the experiment with MOLM14 cells, 16 nM.

Take `CCN(C(=O)c1cc(F)ccc1Oc1nncnc1N1CCC2(C1)CN(C(CCCN(C)CCOC)C(C)(C)C)C2)C(C)C` (single isomer, unassigned) [Compound 13b]: the IC50 with MOLM14 cells is 21 nM.

`CCN(C[C@@H](C)O)C(=O)c1cc(F)ccc1Oc1nncnc1N1CCC2(C1)CN([C@H](CCCN(C)CCOC)C(C)C)C2` (single isomer, unassigned) [Compound 18] displayed an IC50 at Menin/MLL of 35.5 nM.

Regarding `C#CCN(C)CCCC(C(C)C)N1CC2(CCN(c3ncnnc3Oc3ccc(F)cc3C(=O)N(CC)C(C)C)C2)C1` (single isomer, unassigned) [Compound 11], the IC50 in the experiment on MOLM14 cells stood at 60 nM.

Turning to `COCCN(C)CCC[C@H](C(C)C)N1CC2(CCN(c3ncnnc3Oc3ccc(F)cc3C(=O)N(CCN)C(C)C)C2)C1` (single isomer, unassigned) [Compound 9], the IC50 in the experiment on MOLM14 cells worked out at 190 nM.

As to `CCN(C(=O)c1cc(F)ccc1Oc1nncnc1N1CCC2(C1)CN(C(CCCNCCOC(F)F)C(C)C)C2)C(C)C` (single isomer, unassigned) [Compound 7], the concentration for half-maximal inhibition (IC50) against Menin/MLL was determined as 0.121 nM; in the experiment with MOLM14 cells, 7 nM.

With `CC(C)N(C(=O)c1cc(F)ccc1Oc1nncnc1N1CCC2(C1)CN(C(CC(O)CN(C)C)C(C)(C)C)C2)C(C)C` (single isomer, unassigned) [Compound 23], the IC50 against Menin/MLL is 4.57 nM.

On to `COCCN(C)CCC[C@H](C(C)C)N1CC2(CCN(c3ncnnc3Oc3ccc(F)cc3C(=O)N(CCCCN)C(C)C)C2)C1` (single isomer, unassigned) [Compound 10], for which the IC50 with MOLM14 cells turned out to be 460 nM.

Consider `CCN(C(=O)c1cc(F)cc(Br)c1Oc1nncnc1N1CCC2(C1)CN([C@H](CCCN(C)CCOC)C(C)C)C2)C(C)C` [Compound 21], for which, on Menin/MLL, 13.7 nM corresponded to half-maximal inhibition (IC50).

`CCN(C)C[C@@H](O)C[C@H](N1CC2(CCN(c3ncnnc3Oc3ccc(F)cc3C(=O)N(CC)C(C)C)C2)C1)C(C)(C)C` (single isomer, unassigned) [Compound 25]: 6.46 nM corresponded to half-maximal inhibition on Menin/MLL (IC50).
